PMC4086519, “Anti-Trichophyton Activity of Protocatechuates and Their Synergism with Fluconazole” (Evidence-based Complementary and Alternative Medicine : eCAM, 2014)
Converted amounts (≈) assume the structure as drawn. Read-outs that look alike come from different tables or passages of the source.

Experiments:
Assay type in all cases: cell-based
[1] = test system: Trichophyton mentagrophytes; experiment: Minimum fungicide concentration (MFC)
Description: (§1) A qualitative analysis of the fungal viability was performed by transferring a portion of the wells to a plate with Sabouraud (Difco, BD Biosciences) medium and incubating it at 35°C for the time determined for each fungal agent. […] A visual reading was performed to confirm the death or growth inhibition provided by fluconazole and the sixteen semisynthetic substances derived from protocatechuic acid.

Trichophyton rubrum [2] = experiment: Minimum fungicide concentration (MFC)
Description: as §1

[3] = test system: Trichophyton mentagrophytes; experiment: Broth microdilution MIC (CLSI M38-A2, modified); details: 35°C, 7 days
Description: (§2) To evaluate its antifungal activity, […] of dermatophytes were tested: two clinical strains of Trichophyton rubrum (Tr1 and Tr2), Trichophyton rubrum ATCC MYA 3108, two clinical strains of Trichophyton mentagrophytes (Tm1 and Tm2), and Trichophyton mentagrophytes ATCC 40131 (Tm3). The microorganisms were obtained from the collection of the Clinical Mycology Laboratory of the Department of Clinical Analyses at the School of Pharmaceutical Sciences of Universidade Estadual Paulista (UNESP). The strains were cultivated on Sabouraud dextrose agar (Difco, BD Biosciences) and incubated at 28°C for 7-15 days. For all experiments, the strains were cultivated on Potato Dextrose Agar (Difco, BD Biosciences) and incubated at 28°C as described above or until sporulation. The dilution of the synthetic compounds was performed with DMSO (Synth, Diadema, Sao Paulo, Brazil) as described by Scorzoni et al.. […] The antifungal drugs were diluted according to the CLSI […]-A2 document. Stock solutions of Fluconazole (Sigma-Aldrich, St. Louis, MO, USA) were prepared, considering its power. Serial twofold dilutions were prepared according to the recommendations of Zhang and collaborators, with some modifications. The antifungal activity tests were performed using the broth microdilution method as described in […]-A2, a document produced by the Clinical and Laboratory Standards Institute (CLSI, 2008), with modifications. The medium used was RPMI 1640 with L-glutamine (Sigma-Aldrich, St. Louis, MO, USA) buffered to pH 7.0 with 0.165 M morpholinepropanesulfonic acid (MOPS) (Sigma-Aldrich, St. Louis, MO, USA), supplemented with 2% glucose. […] The suspension of conidia was then transferred to small sterile test tubes where they remained for 40 minutes to separate the microconidia, which were lighter and therefore present in the supernatant. […] These suspensions were diluted in RPMI 1640 (Sigma-Aldrich, St. […] Positive (100 μL of RPMI medium with 100 μL of inoculum) and negative (200 μL of RPMI) controls were included in all experiments. The plates were incubated with agitation at 35°C for 7 days. The MIC reading was performed by spectrophotometry at 490 nm.

Trichophyton rubrum [4] = experiment: Broth microdilution MIC (CLSI M38-A2, modified); details: 35°C, 7 days
Description: as §2

[5] = test system: NOK (oral human keratinocyte) cell lines; experiment: Sulphorhodamine B cytotoxicity assay; details: NOK cells, 24 hours
Description: The cytotoxicity of sixteen semisynthetic compounds derived from protocatechuic acid was assessed using a sulphorhodamine B assay in NOK (oral human keratinocyte) cell lines obtained from the American Type Culture Collection (Manassas, VA, USA). The strains were maintained in bottles appropriate for cell culture with keratinocyte serum free medium (Gibco, Life Technologies) and incubated in standard conditions of 37°C and 5% CO2. Cell concentrations ranging from 2.5 to 5.0 × 10^4 cells/mL were used for the formation of cell monolayers. The concentrations of pure substances were kept in contact with the cells for 24 hours. After the incubation period, the cells were treated with the sulphorhodamine B reagent (Sigma-Aldrich, St. Louis, MO, USA) as previously described by Skehan et al., with some modifications.

[6] = test system: Trichophyton mentagrophytes; experiment: Checkerboard synergism assay with fluconazole; details: for MIC, substances alone: checkerboard, 168 hours
Description: (§3) The drug activity was assessed using a checkerboard method derived from a standardised procedure established by the National Committee for Clinical Laboratory Standards ([…]-A2). Briefly, the test was performed on the same medium used for susceptibility testing. Volumes of 50 μL of each drug in a concentration four times the final concentration were dispensed in 96-well plates ([…], Switzerland). To each well, 100 μL of the fungal suspension was added to produce a final concentration of 5.0 × 10^3 CFU/mL. As a negative control, we used 200 μL of RPMI, while as a positive control, we used 100 μL of RPMI medium with 100 μL of inoculum. The plates were incubated at 35°C, and the reading was completed after 168 hours. We conducted visual and spectrophotometric readings at 490 nm. To determine the effect of combinatorial fractions, we calculated the fractional inhibitory concentration (FIC). The FIC was calculated by taking the MIC of the substance in combination/MIC of the substance alone. The sum of the fractional inhibitory concentration (FIC) of each substance consists of the fractional inhibitory concentration index: (the MIC of drug A in combination/the MIC of drug A alone) + (the MIC of drug B in combination/the MIC of drug B alone).

Trichophyton rubrum [7] = experiment: Checkerboard synergism assay with fluconazole
Description: as §3

[8] = Tm3, T. mentagrophytes ATCC 40131
[9] = Tr1, T. rubrum clinical isolate
[10] = Tr2, T. rubrum clinical isolate

Row | Compound | MFC ([1]; Tm1, clinical isolate) [µg/mL] | MFC ([1]; Tm2, clinical isolate) [µg/mL] | MFC [1, 8] [µg/mL] | MFC (Trichophyton rubrum [2]; [9]) [µg/mL] | MFC (Trichophyton rubrum [2]; [10]) [µg/mL] | MFC (Trichophyton rubrum [2]; Tr3, T. rubrum ATCC MYA 3108) [µg/mL] | MIC ([3]; Tm1, clinical isolate) [µg/mL] | MIC ([3]; Tm2, clinical isolate) [µg/mL] | MIC [3, 8] [µg/mL] | MIC (Trichophyton rubrum [4]; [9]) [µg/mL] | MIC (Trichophyton rubrum [4]; [10]) [µg/mL] | MIC (Trichophyton rubrum [4]; Tr3, T. rubrum ATCC MYA 3108) [µg/mL] | further results
1 | CCOC(=O)c1ccc(O)c(O)c1 [Protocatechuate ethyl] | 62.5 (≈ 343 µM) | 31.2 (≈ 171 µM) | 125 (≈ 686 µM) | 31.2 (≈ 171 µM) | 31.2 (≈ 171 µM) | 31.2 (≈ 171 µM) | 31.2 (≈ 171 µM) | 31.2 (≈ 171 µM) | 31.2 (≈ 171 µM) | 31.2 (≈ 171 µM) | 31.2 (≈ 171 µM) | 31.2 (≈ 171 µM) | 
2 | CCCCCCCOC(=O)c1ccc(O)c(O)c1 [Protocatechuate heptyl, protocatechuate heptyl] | 3.9 (≈ 15.5 µM) | 0.97 (≈ 3.84 µM) | 3.9 (≈ 15.5 µM) | 1.95 (≈ 7.73 µM) | 1.95 (≈ 7.73 µM) | 1.95 (≈ 7.73 µM) | 3.9 (≈ 15.5 µM) | 0.97 (≈ 3.84 µM) | 3.9 (≈ 15.5 µM) | 1.95 (≈ 7.73 µM) | 1.95 (≈ 7.73 µM) | 1.95 (≈ 7.73 µM) | Cytotoxicity IC50 [5]: 78.1 µg/mL; MIC of the protocatechuate, substances combined [6]: 0.03 µg/mL; association type (in words) [6]: synergistic; reduction in the MIC of fluconazole [6]: fourfold; MIC, substances alone ([6]; Tm1): 3.9 µg/mL; MIC, substances alone ([6]; Tm3 (ATCC 40131)): 3.9 µg/mL; FIC index ([6]; listed as 9): 0.48; reduction in the MIC of fluconazole ([6]; listed as 9): four-; FIC index (Trichophyton rubrum [7]): 1.0; association type (in words) (Trichophyton rubrum [7]): additive; MIC, substances alone (Trichophyton rubrum [7]; Tr1, checkerboard, 168 hours): 1.9 µg/mL
3 | CCCCCCCCCCCCCCCCOC(=O)c1ccc(O)c(O)c1 [Protocatechuate hexadecyl] | > 250 | > 250 | > 250 | > 250 | > 250 | > 250 | > 250 | > 250 | > 250 | > 250 | > 250 | > 250 | 
4 | COC(=O)c1ccc(O)c(O)c1 [Protocatechuate methyl] | 250 (≈ 1490 µM) | 62.5 (≈ 372 µM) | 62.5 (≈ 372 µM) | 62.5 (≈ 372 µM) | 31.2 (≈ 186 µM) | 62.5 (≈ 372 µM) | 62.5 (≈ 372 µM) | 62.5 (≈ 372 µM) | 31.2 (≈ 186 µM) | 62.5 (≈ 372 µM) | 31.2 (≈ 186 µM) | 31.2 (≈ 186 µM) | 
5 | CCCCCCCCCCCCCCCCCCOC(=O)c1ccc(O)c(O)c1 [Protocatechuate octadecyl] | > 250 | > 250 | > 250 | > 250 | > 250 | > 250 | > 250 | > 250 | > 250 | > 250 | > 250 | > 250 | 
6 | CCCOC(=O)c1ccc(O)c(O)c1 [Protocatechuate propyl] | 62.5 (≈ 319 µM) | 62.5 (≈ 319 µM) | 31.2 (≈ 159 µM) | 15.6 (≈ 79.5 µM) | 31.2 (≈ 159 µM) | 31.2 (≈ 159 µM) | 15.6 (≈ 79.5 µM) | 62.5 (≈ 319 µM) | 15.6 (≈ 79.5 µM) | 15.6 (≈ 79.5 µM) | 31.2 (≈ 159 µM) | 31.2 (≈ 159 µM) | 
7 | CCCCCCCCCCCCCCOC(=O)c1ccc(O)c(O)c1 [Protocatechuate tetradecyl] | > 250 | 250 (≈ 713 µM) | > 250 | > 250 | 125 (≈ 357 µM) | > 250 | > 250 | 125 (≈ 357 µM) | > 250 | > 250 | 125 (≈ 357 µM) | > 250 | 
